Test: mn = molality of the nth substance listed, in mol/kg
Conditions: 298.15 K, 101 kPa, Liquid; for electrical conductivity: Alternating current cell with electrodes; for mass density: Vibrating tube method

CCCCCC[N+](C)(C)C.[Br-] [hexyltrimethylammonium bromide] + O
Conditions | electrical conductivity [S/m] | mass density [kg/m3]
m1 = 0.02501 | 0.446 | 997.79
m1 = 0.05001 | 0.641 | 998.57
m1 = 0.07505 | 0.99 | 999.34
m1 = 0.125 | 1.02 | 1000.88
m1 = 0.13 | 1.15 | 1001.05
m1 = 0.15 | 1.3 | 1001.64
m1 = 0.1751 | 1.72 | 1002.41
m1 = 0.25 | 1.85 | 1004.69
m1 = 0.2751 | 2.08 | 1005.39
m1 = 0.3251 | 2.2 | 1006.85
m1 = 0.3501 | 2.41 | 1007.63
m1 = 0.4001 | 2.51 | 1009.06
m1 = 0.425 | 2.79 | 1009.77
m1 = 0.5001 | 3.53 | 1011.89
m1 = 0.7503 | 3.83 | 1018.71
m1 = 0.8791 | 4.07 | 1021.99
m1 = 1 | 0.239 | 1025.02
m1 = 1.501 | – | 1036.33
m1 = 2.001 | – | 1046

Source: the NIST ThermoML archive (doi:10.1016/j.fluid.2013.08.005)
